Read-outs that look alike come from different tables or passages of the source.
Legend:
[1] = system: endogenous GABAAR; experiment: all-optical assay of GABAAR positive allosteric modulation in primary neuronal culture; assay type: cell-based, rat
Experimental: (§1) Cultured neuronal assays: Preparation of hippocampal cultures: Mixed glial and neuronal cultures were prepared from the hippocampus of postnatal day 0 to 1 Sprague-Dawley rat pups. Separate pools of dissociated cells were transfected via electroporation (LONZA, V4SP-3096) with plasmid constructs, and depending on assay directives, either plated individually or mixed with a different pool of electroporated cells after a 10 min recovery period. Cells were cultured on coverslips (Deckglaser) pre-treated with high molecular weight poly-D-lysine (Sigma, P7405; 0.05 mg/mL) in 24-well plates and maintained in NbActiv4 (BrainBits, Nb4-500) at 37 C, 5% CO2. Media was changed by half at DIV3 or 4 and then weekly thereafter; experiments were performed between DIV16 to DIV18.
Diazepam/Flumazenil: Dissociated neurons were electroporated with constructs and cultured for 2 weeks. The assay was performed in a modified GABAR-BASE, with an increased KCl concentration to enhance neuronal excitability and a lowered GABA level for a baseline. Again, a DRUG plate and three DoseGroups were used as described above for dosing, but no final WASH. […] Imaging alignment, proof-reading and analysis were performed in a similar fashion to the GABAR assay using MatLab.
Next it was sought to extend DART to allosteric modulators. The allosteric binding site of the GABAAR, known to bind several drugs, with effects ranging from negative to positive allosteric modulation was first analyzed. Diazepam represents the prototypic PAM at this site, and is the most clinically significant of the class. Thus, a diazepam analog was synthesized with a short alkyne attached to the amide of the diazepam core; an attachment site known to tolerate substituents and thought from structural inspection of the GABAAR-bound diazepam pose to allow linker access to free solution. Click chemistry was used to assemble the full-length diazepam.1DART.2 and leveraged an all-optical assay of endogenous GABAARs in primary neuronal culture, with ChR2 and GCaMP6s in the same cell.

[2] = system: GABAAR; experiment: whole-mount retina, GABAAR-mediated evoked IPSC in retinal ganglion cells; assay type: cell-based, mouse; conditions: 300 nM, 15 min
Experimental: (FIG. 6A) Viral strategy (top panel). […] Experimental overview (second panel from the top to bottom panel). Top: whole retina; synaptic current is evoked (stim) and recorded (voltage-clamp of dTomato+ RGC), with ionic and pharmaceutical conditions chosen to isolate the AMPAR or GABAAR. A 10 min baseline is followed by 15 min application of 300 nM Rx^DART.2+30 nM Alexa^647.1DART.2. […] (FIG. 6B) CMPDA.2^DART.2 (left). Electropositive spacer (PDB 3RNN). […] AMPAR structural model (middle) (composite of PDB 5WEO, 3RNN, and 1FTL). Cylinder depicts cell membrane. […] YM90K.1^DART.2 (right). Structural model (PDB 1FTL). […] (FIG. 6C) diazepam.1^DART.2 (left). Structural model (PDB 6HUP). […] GABAAR (middle) structural model (composite of PDB 6HUP and 6HUK). […] Structural model (PDB 6HUK).
Preparation of Retina: Mice were intravitreal injected AAV10 HaloTag™-dTomato to eyes. After 8-12 weeks, the mice killed by cervical dislocation. Both eyes were removed and dissected under a stereo-microscope. Retinas were isolated from the eyecups and placed in oxygenated (95% O2/5% CO2) cold-Ames medium (Sigma-Aldrich), supplemented with 21 mM NaHCO3. After the vitreous body was removed, a retina was cut into 3 pieces, leaving each retina piece attached to a filter paper with 2 mm hole by retina ganglion-cell-side-down. The pieces of retina were stored in bubbled Ames solution at room temperature, then transferred to recording chamber with retina ganglion-cell-side-up for recording.
Whole-cell patch-clamp recording: The brain slices or retinas were perfused with bubbled aCSF at 29-30° C. with a 2 ml/min flow rate. Recordings were made by whole cell patch recording techniques using a Multiclamp 700B amplifier (Molecular Devices, Axon Instruments Inc., Union City, CA). The signals were filtered at 10 KHz and acquired using Digitate 1440A and pClamp 10.7 (Molecular Devices). The recording pipettes (4 MΩ-6 MΩ) were filled with internal solutions. For GABAA receptor-mediated evoked inhibitory postsynaptic currents ([…]) recording, the pipettes filled with Cesium Chloride-based internal solution (in mM) 135 CsCl, 2 MgCl2, 0.5 EGTA, 10 HEPES, 4 Mg-ATP, 0.5 Na-GTP, 10 Na2-phosphocreatine, and QX314 (lidocaine N-ethyl bromide), pH adjusted to 7.3 with CsOH (290 mosm). For AMPA-receptor mediated evoked excitatory postsynaptic currents (eEPSCs) recording, the pipette solution contained (in mM) 130 CsMeS, 1 MgCl2, 0.5 EGTA, 10 HEPES, 4 Mg-ATP, 0.5 Na-GTP, 10 Na2-phosphocreatine, and 4 QX314, pH adjusted to 7.3 with CsOH (290 mosm). For experiment of brain slices and retinas, the eIPSCs or eEPSCs were elicited by electrical stimuli at 0.067 Hz in 0.3-ms duration and 150-300-ρA (60-70% maximum responses) stimulation intensity at a holding potential of −70 mV. The stimulating electrode was placed within 60-100 μm from the recording neuron under voltage-clamp mode. GABA-receptor mediated eIPSCs were isolated in the presence of DNQX ([…] AMPAR antagonist) and AP-V ([…] antagonist) in the bath solution. For AMPA-receptor mediated eEPSCs, added picrotoxin ([…], GABAAR antagonist) and AP-V ([…]) to the bath solution.

[3] = system: endogenous GABAARs; experiment: all-optical assay of GABAAR antagonism in primary neuronal culture; assay type: cell-based, rat; conditions: traditional (non-DART) version
Experimental: as §1
Gabazine: Dissociated neurons were electroporated with constructs and cultured for 2 weeks. The assay was performed in the same BASE solution as described above, but with the addition of synaptic blockers CPP (NMDAR antagonist; Tocris) and NBQX (AMPAR antagonist; Abcam, ab120046) to isolate GABAR activity, and a small amount of GABA (GABAR agonist; Sigma) to ensure GABAR activity (=GABAR-BASE). […] Instead, a high dose of regular gabazine was used to completely silence any cells that may not have had realized full antagonism by the end of the assay. Imaging alignment, proof-reading and analysis were performed in a similar fashion to the AMPAR assay using MatLab.
It was next focused on blocking the GABAAR, a ubiquitous transducer of synaptic inhibition. […] The structure-activity literature of gabazine, a selective GABAAR antagonist, was explored. The core gabazine pharmacophore includes of a 3-amino, 6-phenoxy-pyridazine ring, with GABA embedded in the 2-position (2 butyric acid). Based on historical, low-potency predecessors of gabazine, a longer GABA moiety (2 pentanoic acid), and methyl substituents (e.g., 5-CH3) were explored (FIG. 2F). For each variant, the 6-phenoxy moiety was modified to make a gabazinealkyne module, which was click-conjugated to DART.2. Several variants were made, including gabazine.1^DART.2 (2 butyric acid, 5-H), gabazine.5DART.2 (2 pentanoic acid, 5-H), and gabazine.7DART.2 (2 pentanoic acid, 5-CH3). An all-optical assay of endogenous GABAARs in primary neuronal culture was then developed. […] Excitatory synapses were blocked, such that opto-stimulation with ChR2 became the only source of neural excitation.

[4] = system: GABAAR; experiment: cerebellar slice voltage-clamp, tonic GABAAR current in granule cells; assay type: cell-based, mouse; conditions: traditional gabazine
From the text: (FIG. 4A) Validation of gabazine.1^DART.2 in cerebellar slice. Top: voltage-clamp schematic. Bottom: tonic GABAAR in granule cells expressing ^+HTP or ^ddHTP. […] Data are mean±SEM, cells normalized to baseline. (FIG. 4B) In vivo delivery of gabazine.1^DART.2 to cerebellar granule cells. Top right: schematic of experimental approach, GCaMP6f granule-cell activity obtained in the absence of sensory stimuli. Top left: example field of view, GCaMP6f signal averaged across trials. Bottom: example calcium traces (ΔF/F) in an awake ^+HTP mouse before (baseline) and after (1 μL of 1 μM gabazine.1^DART.2) infusion. (FIG. 4C) In vivo, 1 μL of 1 μM gabazine.1^DART.2 to ^+HTP mice. Color indicates ΔF/F, each row is one cell before (left) and after (right) gabazine.1^DART.2 infusion. […] (FIG. 4D) In vivo, 1 μL of 1 μM gabazine.1^DART.2 to ^ddHTP mice. Format as in panel C. […] (FIG. 4E) Validation of gabazine.7^DART.2 in VTA slice. Top: evoked-IPSC configuration. […] Data are mean±SEM, cells normalized to baseline. […] Data are mean±SEM, normalized to baseline speed of each animal.
Next, the feasibility of using DART.2 for GABAAR antagonism in live mice was explored. […] Whether this sparsity results from low excitatory drive, or high inhibitory GABAAR tone, has been difficult to address with prior tools. For example, one may attempt to reduce inhibition onto granule cells by silencing local GABA-producing neurons [golgi cells]. However, this would disinhibit local excitatory neurons [unipolar brush cells]. Thus the approach would inadvertently elevate excitatory drive onto granule cells, concomitant with the desired goal of reducing their inhibition, confounding interpretation. […] AAV DIO ^+HTPGPI or AAV DIO ^ddHTPGPI were expressed along with GCaMPxx in xxx-Cre mice; 2p. […] Next, in vivo experiments, using two-photon imaging of granule cells were performed.

[5] = system: endogenous AMPARs; experiment: all-optical cultured-neuron assay of AMPAR-dependent synaptic transmission; assay type: cell-based, rat; conditions: DW=Rx50/HTL50; ddHTP vs +HTP cells, 15 min
Experimental: as §1

SMILES: COc1cc(CCCCl)ccc1CCOCCNC(=O)c1ccc(CNC(=O)CCOCCOCCOCCOCCOCCOCCOCCOCCOCCOCCOCCOCCOCCOCCOCCOCCOCCOCCOCCOCCOCCOCCOCCOCCOCCOCCOCCOCCOCCOCCOCCOCCOCCOCCOCCOCCn2cc(COCCOCCOCCOCCOCCOCCN3C(=O)CN=C(c4ccccc4)c4cc(Cl)ccc43)nn2)cc1 [diazepam.1DART.2, 1-(4-(19-(7-chloro-2-oxo-5-phenyl-2,3-dihydro-1H-benzo[e][1,4]diazepin-1-yl)-2,5,8, 11, 14, 17-hexaoxanonadecyl)-1H-1,2,3-triazol-1-yl)-N-(4-((2-(4-(3-chloropropyl)-2-methoxyphenethoxy)ethyl)carbamoyl)benzyl)-3,6,9,12, 15, 18,21,24,27, 30, 33, 36, 39, 42, 45, 48, 51, 54, 57, 60, 63, 66, 69, 72, 75, 78, 81, 84, 87, 90, 93, 96, 99, 102, 105, 108-hexatriacontaoxaundecahectan-111-amide]
- DW (t=15 m) ([1]; Rx50/HTL50): ~750
- EC50 ([1]; read-out: HTL50 (t=15 m), +HTP neurons, 15 min): 0.04 µM
- EC50 ([1]; read-out: Rx50, ddHTP neurons, 5 µM GABA): 30 µM
- GABAAR evoked IPSC integral (total charge transfer) boost, +HTP cells [2]: 2 fold
- GABAAR evoked IPSC, ddHTP cells [2]: no effect on ddHTP RGCs
- GABAAR-mediated IPSC potentiation, +HTP RGCs [2]: significantly potentiated IPSCs
- GABAAR evoked IPSC, ddHTP cells ([2]; listed as diazepam.1^DART.2): not ^ddHTP cells

SMILES: COc1ccc(-c2ccc(=N)n(CCCC(=O)O)n2)cc1 [gabazine, reference compound]
- effect on +HTP vs ddHTP cells [3]: equally affected
- GABAAR current after subsequent application [4]: blocks all GABAAR current

SMILES: O=C(CCCn1c(=O)c(=O)[nH]c2cc([N+](=O)[O-])c(-n3ccnc3)cc21)NCCOCCOCCOCCOCCOCCOCc1cn(CCOCCOCCOCCOCCOCCOCCOCCOCCOCCOCCOCCOCCOCCOCCOCCOCCOCCOCCOCCOCCOCCOCCOCCOCCOCCOCCOCCOCCOCCOCCOCCOCCOCCOCCOCCOCCC(=O)NCCOCCOCCCCCCCl)nn1 [YM90K.1DART.1, 1-(4-(24-(7-(1H-imidazol-1-yl)-6-nitro-2,3-dioxo-3,4-dihydroquinoxalin-1 (2H)-yl)-21-oxo-2,5,8, 11, 14, 17-hexaoxa-20-azatetracosyl)-1H-1,2,3-triazol-1-yl)-N-(2-(2-((6-chlorohexyl)oxy)ethoxy)ethyl)-3,6,9, 12, 15, 18, 21, 24, 27, 30, 33, 36, 39, 42, 45, 48, 51, 54, 57, 60, 63, 66, 69, 72, 75, 78, 81, 84, 87, 90, 93, 96, 99, 102, 105, 108-hexatriacontaoxaundecahectan-111-amide]
- DW (t=15 m) [5]: 30

Reference: patent US20250213700A1, “COMPOUNDS, COMPOSITIONS, AND METHODS FOR CELL-SPECIFIC PHARMACOLOGY” (Duke University, priority 2022, published 2025)
